Results on 7 molecules are retold here after ChEMBL document CHEMBL1145566, “Synthesis of BC-ring model of globostellatic acid X methyl ester, an anti-angiogenic substance from marine sponge” (Bioorg Med Chem Lett, 2008).

Holding throughout (assay type): functional, cell-based
The nature of assay [1]: Antiproliferative activity against human KB3-1 cells after 72 hrs. Particulars: KB 3-1, 72 h.
Assay [2] relates to HUVEC. Nature of the assay: Antiproliferative activity against human HUVEC cells after 72 hrs.
Assay [3] concerns HUVEC. In words: Inhibition of VEGF-induced tubular formation in human HUVEC cells.
Assay [4] relates to HUVEC. In words: Inhibition of VEGF-induced migration in human HUVEC cells.

Calls of active or inactive are those of the source. No cut-off for these calls is given here.

For orientation: IC50 means the point on the concentration scale where inhibition reaches its midpoint. As to `CC(C)=C/C=C/C(C)=C/C=C/C(C)=C1/C(=O)C[C@H]2CC(=O)CC[C@]12C`, the IC50 in assay [1] worked out at 17 µM; in the assay on HUVEC [2], 2.6 µM.
For `COC(=O)[C@]1(C)[C@@H]2CC[C@]3(C)/C(=C(C)/C=C/C=C(C)/C=C/C=C(C)C)C(=O)C[C@H]3[C@@]2(C)CC[C@H]1OC(C)=O` (stereo in doubt), the result in the assay with HUVEC [3] and with HUVEC [4] was Active.
With `CC(C)=C/C=C/C(C)=C/C=C/C(C)=C1/C(=O)C[C@H]2CC3(CC[C@]12C)OCCO3`, the IC50 in assay [1] worked out at 20 µM; in the assay with HUVEC [2], 13 µM.
With `CC(C)=C/C=C/C(C)=C/C=C/C(C)=C1/CC[C@H]2CC3(CC[C@]12C)OCCO3`, the results for the IC50 (in assay [1]; with HUVEC [2]) were 21 µM and 8.8 µM, respectively.
With `COC(=O)[C@]1(C)[C@@H]2CC[C@]3(C)\C(=C(C)/C=C/C=C(C)\C=C\C=C(C)C)C(=O)C[C@H]3[C@@]2(C)CC[C@H]1OC(C)=O` (stereo in doubt), the result in the assay with HUVEC [3] and in the assay with HUVEC [4] was Active.
On to `COC(=O)[C@]1(C)[C@@H]2CC[C@]3(C)\C(=C(C)/C=C/C=C(C)/C=C/C=C(C)C)C(=O)C[C@H]3[C@@]2(C)CC[C@H]1OC(C)=O` (stereo in doubt), for which the result with HUVEC [3] and in the assay on HUVEC [4] was Active. The results for the IC50 (in assay [1]; in the assay on HUVEC [2]) were 14 µM and 0.09 µM, respectively.
Consider `COC(=O)[C@]1(C)[C@@H]2CC[C@]3(C)/C(=C(C)/C=C/C=C(C)\C=C\C=C(C)C)C(=O)C[C@H]3[C@@]2(C)CC[C@H]1OC(C)=O` (stereo in doubt), for which the result in the assay on HUVEC [3] and in the assay with HUVEC [4] was Active.
